Where a SMILES comes first, the peptide text is derived from it. [ ]: non-standard residue; d: D form.

A short description of series [1]: ThT fluorescence, self-assembly of peptide inhibitors without Tau. The series is classed as physicochemical. The note with it: ThT end-point 216 h (9 days); 20 µM peptide, PBS, 1 mM DTT, 20 µM ThT, 10 µM heparin, pH 7.4; n=3. The procedure: (§1) Fluorescence was measured (λex = 442 nm, λem = 483 nm), and data were normalized. […] The addition of inhibitor to the growth phase was controlled by adding an equivalent volume of buffer alone.
Experiments were conducted in triplicate and error bars were reported as standard deviation. Statistical analysis: p > 0.05, *p ≤ 0.05, **p ≤ 0.01, ***p ≤ 0.001.

The target in the next series is T1, Tau^2N4R (Homo sapiens, UniProt P10636).
T1 construct: and full‐length Tau (Tau^2N4R); made in house; host or cells: E. coli BL21
T1 sequence (P10636 1-441 isoform P10636-8): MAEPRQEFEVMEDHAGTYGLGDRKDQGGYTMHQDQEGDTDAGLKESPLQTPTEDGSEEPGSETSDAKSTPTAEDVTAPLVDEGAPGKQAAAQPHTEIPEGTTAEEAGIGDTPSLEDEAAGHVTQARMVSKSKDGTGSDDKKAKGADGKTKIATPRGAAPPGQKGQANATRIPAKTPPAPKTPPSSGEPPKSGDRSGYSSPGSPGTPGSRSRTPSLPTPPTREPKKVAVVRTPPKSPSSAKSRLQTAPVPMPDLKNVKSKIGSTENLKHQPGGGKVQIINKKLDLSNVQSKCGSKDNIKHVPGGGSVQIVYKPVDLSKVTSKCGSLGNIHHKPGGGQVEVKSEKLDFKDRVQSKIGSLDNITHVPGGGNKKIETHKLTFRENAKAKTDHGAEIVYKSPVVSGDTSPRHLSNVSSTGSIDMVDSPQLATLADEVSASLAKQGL
In words: ThT fluorescence end-point, heparin-induced aggregation of Tau^2N4R. The series is classed as biochemical. The procedure: as §1
(§2) FIGURE 3 Lead peptide RI‐AG03 dose‐response and target specificity. […] (C) Concentration‐dependent inhibition of by Tau^Δ1‐250 by RI‐AG03. […] (E) Concentration‐dependent inhibition of by Tau^2N4R by RI‐AG03. […] (F) log10 scatter graph of Tau^2N4R inhibition by RI‐AG03 employing a curve fitting algorithm to calculate the IC50 at 5 µM. Experiments were conducted in triplicate and error bars were reported as standard deviation. One factor repeated measures ANOVA + Tukey post hoc statistical analysis: p > 0.05, *p ≤ 0.05, **p ≤ 0.01, ***p ≤ 0.001.

For another series, the target named is T2, VQIINK (Homo sapiens, UniProt P10636).
T2 construct: ^275VQIINK^280 hexapeptide (motif found in three isoforms)
In words: ThT fluorescence, aggregation of VQIINK peptide. The series is classed as biochemical. The conditions noted are these: ThT end-point 24 h; 20 µM VQIINK, 20 µM RI‐AG03 (equimolar), 5 µM heparin, pH 7.4; alone or combined with VQIVYK. The procedure:
as §1, §2

Series [2] concerns Drosophila expressing hTau^2N4R in retinal photoreceptors. In words: Drosophila eye experiments (GMR‐hTau^2N4R rough eye, eye size). The series is classed as in vivo, Drosophila melanogaster. The protocol: Drosophila eye experiments: UAS-Tau^2N4R flies (BDSC_51363) were recombined to GMR-GAL4 (BDSC_8605) driver to generate stable GMR-hTau^2N4R lines (BDSC_51361). GMR-GAL4 was used as the “healthy” control. Progeny was reared on standard fly food supplemented with RI-AG03; 0.08, 0.8, 20, and 40 μM at 25°C. As controls, Tau, and driver-alone flies were incubated without the inhibitor. Freshly eclosed flies were monitored daily using a light microscope and 1-day-old live flies were imaged (n = 5/treatment) and processed on ImageJ to measure eye width. Ommaditial disorderliness quantification was done using Flynotyper ImageJ plugin.[48] Quantification of rough eye phenotype: Quantitative analysis of the total distance ommatidial disorderliness index of all stable ommatidia [Odld] was performed using the ImageJ plugin “Flynotyper.”[48] Analysis was performed using images taken by light microscope, and 150 ommatidia were considered and ranked by stability and distance to the center. Between four and five animals per genotype were analyzed. Scanning Electron Microscopy (SEM): Flies were euthanized, fixed in 2.5% glutaraldehyde in PBS, and had three 5-min washes in PBS. Samples were dehydrated for 30-min at each ethanol concentration: 50%, 70%, 80%, 90%, and 100%. Samples were transferred to hexamethyldisilazane for two 30-min changes, after which hexamethyldisilazane was sublimated overnight. […]

For series [3], the system named is hTau^2N4R aggregates in Elav/hTau^2N4R flies. In words: AFM of insoluble Tau fraction from fly heads. The series is classed as in vivo, Drosophila melanogaster. The note with it: 6 weeks of treatment, 0.08 µM inhibitor (Figure 6 legend), insoluble Tau prep, n = 3, p = 0.0045. The procedure:
[…] Decapitated fly heads were homogenized in TBS/sucrose buffer (50 mM Tris‐HCl pH 7.4, 175 mM NaCl, 1 M sucrose, 5 mM EDTA and protease inhibitor cocktail). Samples were spun for 2 min at 1000 g, retaining the supernatant, which was then spun at 100,000 g for 30 min at 4°C. The supernatant included the aqueous soluble fraction and monomeric Tau “NS1.” The pellet was re‐suspended at ∼20°C–25°C in 5% SDS/TBS buffer (50 mM Tris‐HCl pH 7.4, 175 mM NaCl, 5% SDS, and protease inhibitor cocktail) and spun at 100,000 g for 30 at 25°C. The pellet “NP1” was washed three times with water to remove the remaining SDS from the fractionation and re‐suspended in 1X PBS. A solid glass bead was added to each sample and incubated overnight in a rotor at 4°C. AFM: NP1 (5 µL) was diluted in 1X PBS and 25 µL of the sample was placed in a freshly cleaved 10 mm mica disc. These were incubated at ∼20°C–25°C for 5 min. Samples were rinsed four times with ultrapure water and dried with compressed air. Samples were imaged in the air with a digital multimode Nanoscope IV AFM operating in tapping mode with an aluminum‐coated non‐contact/Tapping mode probe (resonance frequency 320 kHz and force constant 42 N/m). The images are representative of the sample and were taken at random points on the sample with a scan rate of 1–2 Hz. […] Quantification of aggregates was carried out using ImageJ software.

A further series is described as follows: in vitro. The note with it: isolated enzyme trypsin.

Protocol for in vitro: 15% SDS PAGE gels of AG03 (100 µM) and RI-AG03 (100 µM) treated with and without equimolar
Trypsin concentration for 24-hours at 37 °C.

For `CC[C@@H](C)[C@@H](NC(=O)[C@@H](CCCCNC(C)=O)NC(=O)[C@@H](Cc1ccc(O)cc1)NC(=O)[C@@H](CCCCN)NC(=O)[C@H]1CCCN1C(=O)CNC(=O)[C@@H](CCCNC(=N)N)NC(=O)[C@@H](CCCNC(=N)N)NC(=O)[C@@H](CCCNC(=N)N)NC(=O)[C@@H](CCCNC(=N)N)NC(=O)[C@@H](CCCNC(=N)N)NC(=O)[C@@H](CCCNC(=N)N)NC(=O)[C@@H](CCCNC(=N)N)NC(=O)[C@@H](CCCNC(=N)N)NC(C)=O)C(=O)N[C@H](CCC(N)=O)C(=O)N[C@@H](C(=O)NCC(=O)N[C@H](CCCNC(=N)N)C(N)=O)C(C)C` [RI‐AG03] (Ac-[dR][dR][dR][dR][dR][dR][dR][dR]G[dP][dK][dY][dK](Ac)[dI][dQ][dV]G[dR]-NH2), the “self-association into β‐sheets over 216 h” value in series [1] was “does not self‐associate into β‐sheets”. Besides, at Tau^2N4R, 5 µM corresponded to half-maximal inhibition (IC50). At Tau^2N4R (20 µM Tau^2N4R, 20 µM RI‐AG03 added after 24 h, read at 216 h, versus negative control), the “ThT signal at 9 days, peptide added after 24 h of Tau^2N4R aggregation” value was “reduction of ThT signal”. In addition, the “ThT signal at 9 days, peptide added after 72 h of Tau^2N4R aggregation” value on Tau^2N4R (20 µM Tau^2N4R, 20 µM RI‐AG03 added after 72 h, read at 216 h, versus negative control) is recorded as “no reduction of ThT signal”. Also, the “effect on aggregation of VQIINK peptide” value at VQIINK is given as “dramatically reduced”. The “eye size of hTau^2N4R transgenics” value in series [2] (GMR‐hTau^2N4R flies reared on food with 40 µM RI‐AG03, 25°C, versus untreated, n = 5/treatment) is listed as “significantly improved”. In addition, the “ommatidial disorganization (Odld, Flynotyper)” value in series [2] (GMR‐hTau^2N4R flies treated with RI‐AG03, n=4-5/condition) was “significantly improved”. In addition, the “reduction in oligomeric and fibrillar Tau species (AFM)” value in series [3] is listed as 73%. This molecule gave a metabolised at 24 h, 100 µM in “in vitro” of 19%.
